Results on three compounds are retold here after PMC9359557, “Discovery of a novel natural product inhibitor of Clostridioides difficile with potent activity in vitro and in vivo” (PLoS ONE, 2022).

The subject of series [1] is C. difficile. In words: Minimum bactericidal concentration (MBC) assay. The note with it: for MBC: Clostridioides difficile.
Series [2] deals with C. difficile. In words: In vitro susceptibility assay (MIC). The conditions noted are these: Clostridioides difficile.
The next series has as its system Caco-2 cells. Briefly: Cytotoxicity assay (MTS). The series is classed as cell-based, human. The note with it: concentration up to 16 μg/ml, 24 hrs. The procedure: A cytotoxicity assay against Caco-2 cells was performed to assess the potential toxic effect of the natural products as described before. Caco-2 cells cultured in DMEM media supplemented with 10% FBS, 1% NEAA, and 1% penicillin/streptomycin were grown at 37°C in presence of 5% CO2. Following trypsinization, cells were seeded to 96-well plates and allowed to grow till cells in each well attained 100% confluence. Hit natural products were added to the cells at a starting concentration of 16 μg/ml whereas control wells received DMSO at the same concentration. The plates were incubated for 24 hrs. after which MTS reagent was added and absorbance was recorded at 490 nm using a SpectraMax i3Multi-Mode Microplate Reader. Caco-2 cell survival post treatment with natural products were plotted as percentage viability of natural product-treated cells in comparison to the DMSO-treated cells using GraphPad prism v. 8.0.
Fig 4 Cytotoxicity assay of natural products against Caco-2 cell line. The percentage of viable Caco-2 cells was measured as the ratio of average absorbance of each sample relative to the negative control (DMSO). The absorbance values represent the mean of three samples of each natural product compound with error bars representing standard deviation values for the absorbance.

≈ marks a conversion by molar mass, not a printed value.

What is called MBC is the lowest tested concentration that kills the bacteria rather than only halting them. A word on the MIC: it is the smallest concentration in the dilution series that meets the test's criterion for growth inhibition. The term MIC50 denotes the lowest concentration that inhibits either 50% of growth or 50% of the strains tested, depending on the study. A word on the MIC90: it is the lowest concentration that inhibits either 90% of growth or 90% of the strains tested, depending on the study. Low readings indicate higher susceptibility, high ones lower susceptibility. With `CCc1c(Cl)c(O)c(Cl)c(O)c1C(=O)O[C@H]1[C@H](O)[C@H](OC)[C@H](OC/C2=C\C=C\C[C@H](O)/C(C)=C/[C@H](CC)[C@@H](O[C@@H]3OC(C)(C)[C@@H](OC(=O)C(C)C)[C@H](O)[C@@H]3O)/C(C)=C/C(C)=C/C[C@@H]([C@@H](C)O)OC2=O)O[C@@H]1C` [Fidaxomicin], the MBC in the series with C. difficile [1] (ATCC43255, […]) is 0.06 µg/mL (≈ 0.0567 µM); against C. difficile [1] (BAA1870, […]), 0.125 µg/mL (≈ 0.118 µM). Also, the MIC turned out to be 0.125 µg/mL (≈ 0.118 µM) in the series with C. difficile [2]; 0.06 µg/mL (≈ 0.0567 µM) in the series on C. difficile [2] (ATCC43255, […]); 0.06 µg/mL (≈ 0.0567 µM) against C. difficile [2] (BAA1870, […]). The compound further showed an MIC50 in the series with C. difficile [2] of 0.06 µg/mL (≈ 0.0567 µM). The compound further returned an MIC90 with C. difficile [2] of 0.125 µg/mL (≈ 0.118 µM).

Turning to `CO[C@H]1[C@H](O)C[C@@H](O[C@@H]2C[C@H](Oc3cc4cc5c(c(O)c4c(O)c3C)C(=O)[C@@H](O[C@H]3C[C@H](O[C@H]4C[C@H](O[C@H]6C[C@@](C)(O)[C@@H](OC(=O)C(C)C)[C@H](C)O6)[C@H](O)[C@@H](C)O4)[C@H](O)[C@@H](C)O3)[C@H]([C@H](OC)C(=O)[C@@H](O)[C@@H](C)O)C5)O[C@H](C)[C@H]2OC(C)=O)O[C@@H]1C` [NP-003875], the MBC in the series with C. difficile [1] (ATCC43255, […]) worked out at 0.03 µg/mL (≈ 0.0248 µM); in the series on C. difficile [1] (BAA1870, […]), 0.03 µg/mL (≈ 0.0248 µM). Also, the “bactericidal activity against C. difficile” value with C. difficile [1] (in words) is recorded as “bactericidal activity”. For the same compound, the figures for the “toxicity to Caco-2 cells” value with Caco-2 cells and with Caco-2 cells ([…]) were “did not exhibit toxicity” and “non-toxic”, respectively. Further, the MIC in the series with C. difficile [2] was found to be 0.015 µg/mL (≈ 0.0124 µM); against C. difficile [2] (ATCC43255), 0.03 µg/mL (≈ 0.0248 µM); in the series with C. difficile [2] (BAA1870), 0.03 µg/mL (≈ 0.0248 µM). This compound also returned an MIC50 in the series on C. difficile [2] of 0.03 µg/mL (≈ 0.0248 µM). For the same compound, the MIC90 against C. difficile [2] came to 0.03 µg/mL (≈ 0.0248 µM).

Turning to `CN[C@H](CC(C)C)C(=O)N[C@H]1C(=O)N[C@@H](CC(N)=O)C(=O)N[C@H]2C(=O)N[C@H]3C(=O)N[C@H](C(=O)N[C@H](C(=O)O)c4cc(O)cc(O)c4-c4cc3ccc4O)[C@H](O)c3ccc(c(Cl)c3)Oc3cc2cc(c3O[C@@H]2O[C@H](CO)[C@@H](O)[C@H](O)[C@H]2O[C@H]2C[C@](C)(N)[C@H](O)[C@H](C)O2)Oc2ccc(cc2Cl)[C@H]1O` [Vancomycin], the MBC against C. difficile [1] (ATCC43255, […]) came out at 1 µg/mL (≈ 0.69 µM); against C. difficile [1] (BAA1870, […]), 4 µg/mL (≈ 2.76 µM). This compound registered an MIC50 against C. difficile [2] of 0.5 µg/mL (≈ 0.345 µM). Besides, the MIC90 in the series on C. difficile [2] is 1 µg/mL (≈ 0.69 µM). Further, the MIC in the series with C. difficile [2] (ATCC43255, […]) came to 1 µg/mL (≈ 0.69 µM); against C. difficile [2] (BAA1870, […]) it was 1 µg/mL (≈ 0.69 µM).
